Experiments:
H1975 NSCLC cells [1] = assay: growth inhibition of H1975 NSCLC cells cultured alone under conventional static culture conditions; assay type: cell-based; settings: Homo sapiens, NCI-H1975, read-out: half-maximal inhibition
H1975 NSCLC cells [2] = assay: NSCLC cancer cell growth in microfluidic device (orthotopic lung model) with or without breathing motions; assay type: cell-based, human; settings: H1975 NSCLC cells cultured within the microfluidic devices
Method: Primary human lung microvascular endothelial cells were plated the same way as discussed above, except that these cells were plated first with endothelial growth medium. The GFP-labeled NSCLC tumor cells and primary alveolar epithelial cells were then plated using the same method as described above. The following day, the upper microchannel was perfused with epithelial growth medium containing 1 μM dexamethasone and flushed manually for 2-3 days, after which the medium in the upper microchannel was removed to create an air-liquid interface, while the lower microchannel was continuously perfused with air-liquid interface medium at 60 μL/hr. […]
Analysis of cancer cell growth and responses of cancer cells can be monitored visually through the microfluidic device. As discussed above, cancer cell growth can be monitored non-invasively using fluorescence microscopy, such as with a Zeiss TIRF/LSM 710 confocal microscopy and Hamamatsu ImagEM-1K BackThinned EMCCD camera. The number of GFP-labeled cancer cells can be estimated using fluorescence microscopy based on a standard curve generated experimentally that correlates cell density to GFP fluorescence intensity. […]

c-Met = c-Met expression and phosphorylation in NSCLC cells under cyclic mechanical strain; assay type: cell-based, human
Source text: Further, many patients with the EGFR […]/T790M mutation who develop resistance to 3rd generation TKIs overexpress the tyrosine protein kinase c-Met, and c-MET overexpression has been implicated as a mechanism of resistance to TKI therapy in NSCLC patients. […] Thus, mechanical breathing motions also may suppress NSCLC cell response to TKI therapy by altering this signaling pathway.

C#Cc1cccc(Nc2ncnc3cc(OCCOC)c(OCCOC)cc23)c1 [erlotinib]
IC50 (H1975 NSCLC cells [1]): ~100 nM | response of NSCLC cells to TKIs (H1975 NSCLC cells [2]): responded

C=CC(=O)Nc1cccc(Nc2nc(Nc3ccc(N4CCN(C(C)=O)CC4)cc3OC)ncc2C(F)(F)F)c1 [rociletinib]
IC50 (H1975 NSCLC cells [1]): > 1000 nM | effect of increasing dose on expression and phosphorylation of c-Met (c-Met): no significant effect

Source: patent publication US20200270557A1, “HUMAN IN VITRO ORTHOTOPIC AND METASTATIC MODELS OF CANCER” (PRESIDENT AND FELLOWS OF HARVARD COLLEGE, priority 2017, published 2020)
